Our source for the MIC values is patent US8889676B2, “3-ureidoisoquinolin-8-yl derivatives” (Actelion Pharmaceuticals Ltd., priority 2011, dated 2014).

Values after ≈ are worked out from the molar mass of the structure shown.

This experiment relates to S. pneumoniae ATCC 49619. Briefly: Minimal inhibitory concentration (MIC) by broth microdilution (CLSI M7-A7). In kind it is cell-based, Streptococcus pneumoniae. The following applies: Streptococcus pneumoniae, ATCC49619; cation-adjusted Mueller Hinton Broth supplemented with 3% (v/v) lysed horse blood; microdilution method. A digest of the protocol: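 Broth microdilution per CLSI M7-A7 in cation-adjusted Mueller-Hinton broth with 3% (v/v) lysed horse blood for S. pneumoniae. MIC in mg/l.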
Molecule `C#CCOC(=O)NCc1ccc(-c2ccnc(N)c2)c2cc(NC(=O)NCC)ncc12.Cl` [Example 144, [5-(2-amino-pyridin-4-yl)-3-(3-ethyl-ureido)-isoquinolin-8-ylmethyl]-carbamic acid prop-2-ynyl ester hydrochloride] showed an MIC of 0.5 µg/mL. `CCNC(=O)Nc1cc2c(-c3ccncc3)ccc(CNC(=O)CCCN3CCOCC3)c2cn1` [Example 147, N-[3-(3-ethyl-ureido)-5-pyridin-4-yl-isoquinolin-8-ylmethyl]-4-morpholin-4-yl-butyramide] displayed an MIC of 4 µg/mL (≈ 8.39 µM). The molecule `CCNC(=O)Nc1cc2c(Cl)ccc(CNC(=O)OCCCN3CCOCC3)c2cn1` [Example 148, [5-chloro-3-(3-ethyl-ureido)-isoquinolin-8-ylmethyl]-carbamic acid 3-morpholin-4-yl-propyl ester] yielded an MIC of 4 µg/mL (≈ 8.89 µM). `CCNC(=O)Nc1cc2c(F)ccc(CNC(=O)OCCCN3CCOCC3)c2cn1` [Example 149, [3-(3-ethyl-ureido)-5-fluoro-isoquinolin-8-ylmethyl]-carbamic acid 3-morpholin-4-yl-propyl ester] returned an MIC of 4 µg/mL (≈ 9.23 µM). For the molecule `C#CCOC(=O)NCc1ccc(F)c2cc(NC(=O)NCC)ncc12` [Example 150, [3-(3-ethyl-ureido)-5-fluoro-isoquinolin-8-ylmethyl]-carbamic acid prop-2-ynyl ester], the MIC is 1 µg/mL (≈ 2.9 µM). In turn, `CCNC(=O)Nc1cc2c(F)ccc(CNC(=O)OCCOC)c2cn1` [Example 151, [3-(3-ethyl-ureido)-5-fluoro-isoquinolin-8-ylmethyl]-carbamic acid 2-methoxy-ethyl ester] registered an MIC of 2 µg/mL (≈ 5.49 µM). This MIC lies about 2-fold higher than the previous one. `CCNC(=O)Nc1cc2c(-c3ccncc3)ccc(CNC(=O)OCCc3cnn[nH]3)c2cn1` [Example 152, [3-(3-ethyl-ureido)-5-pyridin-4-yl-isoquinolin-8-ylmethyl]-carbamic acid 2-(3H-[1,2,3]triazol-4-yl)-ethyl ester] yielded an MIC of 1 µg/mL (≈ 2.17 µM). The molecule `CCNC(=O)Nc1cc2c(-c3ccnc(C)c3)ccc(CNC(C)=O)c2cn1` [Example 153, N-[3-(3-ethyl-ureido)-5-(2-methyl-pyridin-4-yl)-isoquinolin-8-ylmethyl]-acetamide] showed an MIC of 1 µg/mL (≈ 2.65 µM). As to `CCNC(=O)Nc1cc2c(-c3ccnc(C)c3)ccc(CNC(=O)C3CC3)c2cn1` [Example 154, cyclopropanecarboxylic acid [3-(3-ethyl-ureido)-5-(2-methyl-pyridin-4-yl)-isoquinolin-8-ylmethyl]-amide], inhibition of growth (MIC) required 0.5 µg/mL (≈ 1.24 µM). As for `C#CC(=O)NCc1ccc(-c2ccnc(C)c2)c2cc(NC(=O)NCC)ncc12` [Example 155, propynoic acid [3-(3-ethyl-ureido)-5-(2-methyl-pyridin-4-yl)-isoquinolin-8-ylmethyl]-amide], the lowest concentration to inhibit growth (MIC) was 0.5 µg/mL (≈ 1.29 µM). In turn, `CCNC(=O)Nc1cc2c(-c3ccnc(C)c3)ccc(CNC(=O)c3ncc[nH]3)c2cn1` [Example 156, 1H-imidazole-2-carboxylic acid [3-(3-ethyl-ureido)-5-(2-methyl-pyridin-4-yl)-isoquinolin-8-ylmethyl]-amide] displayed an MIC of 0.5 µg/mL (≈ 1.16 µM).

As for `CCNC(=O)Nc1cc2c(-c3ccnc(C)c3)ccc(CNC(=O)CCOC)c2cn1` [Example 157, N-[3-(3-ethyl-ureido)-5-(2-methyl-pyridin-4-yl)-isoquinolin-8-ylmethyl]-3-methoxy-propionamide], the MIC came out at 1 µg/mL (≈ 2.37 µM).

In the case of `C#CCOC(=O)NCc1ccc(-c2ccnc(C)c2)c2cc(NC(=O)NCC)ncc12` [Example 158, [3-(3-ethyl-ureido)-5-(2-methyl-pyridin-4-yl)-isoquinolin-8-ylmethyl]-carbamic acid prop-2-ynyl ester], the MIC is 0.5 µg/mL (≈ 1.2 µM).

`CCNC(=O)Nc1cc2c(Cl)ccc(CNC(=O)OC)c2cn1` [Example 159, [5-chloro-3-(3-ethyl-ureido)-isoquinolin-8-ylmethyl]-carbamic acid methyl ester] displayed an MIC of 1 µg/mL (≈ 2.97 µM). Molecule `CCNC(=O)Nc1cc2c(-c3ccnc(C4CC4)c3)ccc(CNC(=O)OC)c2cn1` [Example 160, [5-(2-cyclopropyl-pyridin-4-yl)-3-(3-ethyl-ureido)-isoquinolin-8-ylmethyl]-carbamic acid methyl ester] gave an MIC of 2 µg/mL (≈ 4.77 µM).

`CCNC(=O)Nc1cc2c(-c3ccnc(F)c3)ccc(CNC(=O)OC)c2cn1` [Example 161, [3-(3-ethyl-ureido)-5-(2-fluoro-pyridin-4-yl)-isoquinolin-8-ylmethyl]-carbamic acid methyl ester] had an MIC of 0.5 µg/mL (≈ 1.26 µM). Against the preceding molecule, the MIC is about 4-fold lower. `CCNC(=O)Nc1cc2c(-c3ccnc(OC)c3)ccc(CNC(=O)OC)c2cn1` [Example 162, [3-(3-ethyl-ureido)-5-(2-methoxy-pyridin-4-yl)-isoquinolin-8-ylmethyl]-carbamic acid methyl ester] returned an MIC of 1 µg/mL (≈ 2.44 µM).

In turn, `CCNC(=O)Nc1cc2c(-c3ccnc(N)c3)ccc(CNC(=O)OC)c2cn1` [Example 163, [5-(2-amino-pyridin-4-yl)-3-(3-ethyl-ureido)-isoquinolin-8-ylmethyl]-carbamic acid methyl ester] yielded an MIC of 0.5 µg/mL (≈ 1.27 µM). Against the preceding molecule, the MIC is about 2-fold lower. The molecule `CCNC(=O)Nc1cc2c(-c3cc(C)nc(C)c3)ccc(CNC(=O)OC)c2cn1` [Example 164, [5-(2,6-dimethyl-pyridin-4-yl)-3-(3-ethyl-ureido)-isoquinolin-8-ylmethyl]-carbamic acid methyl ester] returned an MIC of 1 µg/mL (≈ 2.45 µM). `CCNC(=O)Nc1cc2c(-c3ccnc(C(F)(F)F)c3)ccc(CNC(=O)OC)c2cn1` [Example 165, [3-(3-ethyl-ureido)-5-(2-trifluoromethyl-pyridin-4-yl)-isoquinolin-8-ylmethyl]-carbamic acid methyl ester] had an MIC of 4 µg/mL (≈ 8.94 µM). Turning to `CCNC(=O)Nc1cc2c(-c3ccnc(OCC)c3)ccc(CNC(=O)OC)c2cn1` [Example 166, [5-(2-ethoxy-pyridin-4-yl)-3-(3-ethyl-ureido)-isoquinolin-8-ylmethyl]-carbamic acid methyl ester], the MIC is 2 µg/mL (≈ 4.72 µM). To `CCNC(=O)Nc1cc2c(-c3ccnc(OC(C)(C)C)c3)ccc(CNC(=O)OC)c2cn1` [Example 167, [5-(2-tert-butoxy-pyridin-4-yl)-3-(3-ethyl-ureido)-isoquinolin-8-ylmethyl]-carbamic acid methyl ester] belongs 4 µg/mL (≈ 8.86 µM). `CCNC(=O)Nc1cc2c(-c3ccnc(O)c3)ccc(CNC(=O)OC)c2cn1` [Example 168, [3-(3-ethyl-ureido)-5-(2-hydroxy-pyridin-4-yl)-isoquinolin-8-ylmethyl]-carbamic acid methyl ester] yielded an MIC of 8 µg/mL (≈ 20.2 µM). To `CCNC(=O)Nc1cc2c(-c3ccnc(N4CCOCC4)c3)ccc(CNC(=O)OC)c2cn1` [Example 169, [3-(3-ethyl-ureido)-5-(2-morpholin-4-yl-pyridin-4-yl)-isoquinolin-8-ylmethyl]-carbamic acid methyl ester] belongs 4 µg/mL (≈ 8.61 µM); to `CCNC(=O)Nc1cc2c(-c3ccnc(CC)c3)ccc(CNC(=O)OC)c2cn1` [Example 170, [5-(2-ethyl-pyridin-4-yl)-3-(3-ethyl-ureido)-isoquinolin-8-ylmethyl]-carbamic acid methyl ester], 1 µg/mL (≈ 2.45 µM); to `CCNC(=O)Nc1cc2c(-c3ccnc(N4CCCC4)c3)ccc(CNC(=O)OC)c2cn1` [Example 171, [3-(3-ethyl-ureido)-5-(2-pyrrolidin-1-yl-pyridin-4-yl)-isoquinolin-8-ylmethyl]-carbamic acid methyl ester], 4 µg/mL (≈ 8.92 µM). `CCNC(=O)Nc1cc2c(-c3cc(F)nc(F)c3)ccc(CNC(=O)OC)c2cn1` [Example 172, [5-(2,6-difluoro-pyridin-4-yl)-3-(3-ethyl-ureido)-isoquinolin-8-ylmethyl]-carbamic acid methyl ester]: the MIC was found to be 1 µg/mL (≈ 2.41 µM). Compared with the last molecule, the MIC is about 4-fold lower. `CCNC(=O)Nc1cc2c(-c3ccnc(OC(C)C)c3)ccc(CNC(=O)OC)c2cn1` [Example 173, [3-(3-ethyl-ureido)-5-(2-isopropoxy-pyridin-4-yl)-isoquinolin-8-ylmethyl]-carbamic acid methyl ester] displayed an MIC of 4 µg/mL (≈ 9.14 µM). In turn, `CCNC(=O)Nc1cc2c(-c3ccnc(N4CCCCC4)c3)ccc(CNC(=O)OC)c2cn1` [Example 174, [3-(3-ethyl-ureido)-5-(3,4,5,6-tetrahydro-2H-[1,2′]bipyridinyl-4′-yl)-isoquinolin-8-ylmethyl]-carbamic acid methyl ester] returned an MIC of 4 µg/mL (≈ 8.65 µM). `CCNC(=O)Nc1cc2c(-c3ccnc(C)c3)ccc(CNC(=O)OC)c2cn1` [Example 175, [3-(3-ethyl-ureido)-5-(2-methyl-pyridin-4-yl)-isoquinolin-8-ylmethyl]-carbamic acid methyl ester] yielded an MIC of 0.5 µg/mL (≈ 1.27 µM). Molecule `CCNC(=O)Nc1cc2c(-c3ccnc(C)c3)ccc(CNC(=O)OC(C)(C)C)c2cn1` [Example 176, [3-(3-ethyl-ureido)-5-(2-methyl-pyridin-4-yl)-isoquinolin-8-ylmethyl]-carbamic acid tert-butyl ester] gave an MIC of 1 µg/mL (≈ 2.3 µM). To `CCNC(=O)Nc1cc2c(-c3ccnc(CCC(N)=O)c3)ccc(CNC(=O)OCCOC)c2cn1` [Example 177, [5-[2-(2-carbamoyl-ethyl)-pyridin-4-yl]-3-(3-ethyl-ureido)-isoquinolin-8-ylmethyl]-carbamic acid 2-methoxy-ethyl ester] belongs 8 µg/mL (≈ 16.2 µM); to `CCNC(=O)Nc1cc2c(-c3ccnc(CC(=O)OC(C)(C)C)c3)ccc(CNC(=O)OCCOC)c2cn1` [Example 178, (4-{3-(3-ethyl-ureido)-8-[(2-methoxy-ethoxycarbonylamino)-methyl]-isoquinolin-5-yl}-pyridin-2-yl)-acetic acid tert-butyl ester], 2 µg/mL (≈ 3.72 µM). For `CCNC(=O)Nc1cc2c(-c3ccnc(C(N)=O)c3)ccc(CNC(=O)OCCOC)c2cn1` [Example 179, [5-(2-carbamoyl-pyridin-4-yl)-3-(3-ethyl-ureido)-isoquinolin-8-ylmethyl]-carbamic acid 2-methoxy-ethyl ester] the value was 8 µg/mL (≈ 17.1 µM). Turning to `CCNC(=O)Nc1cc2c(-c3ccnc(C)c3)ccc(CN(C)C(=O)OC)c2cn1` [Example 180, [3-(3-ethyl-ureido)-5-(2-methyl-pyridin-4-yl)-isoquinolin-8-ylmethyl]-methyl-carbamic acid methyl ester], the lowest concentration to inhibit growth (MIC) was 8 µg/mL (≈ 19.6 µM).
